pEC50, pIC50: −log10 of the molar value. Activity calls are given as the source filed them.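 How the source made its calls: active means compounds giving half or more protection of infected cells from virus-caused growth loss, again on retest; inactive means the rest.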
System: CEM cells HIV-1 protection, formazan growth assay
Test: NCI AIDS Antiviral Assay
Conditions: for pIC50: measured here: growth of uninfected CEM cells
Procedure, shortened: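 Protection of CEM cells against HIV-1 was scored from cell growth (soluble formazan) across five concentrations, with parallel uninfected cells. Lack of protection may reflect toxicity.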

| SMILES | pEC50 | pIC50 | outcome |
| --- | --- | --- | --- |
| CC(C)N1CC2CN(Cc3ccccc3)CC(C1)C2=O | < 3.32 | < 3.32 |  |
| COc1cc2c(c(OC)c1OC)-c1ccc(NCCCNc3ccc4c(cc3=O)C(NC(C)=O)CCc3cc(OC)c(OC)c(OC)c3-4)c(=O)cc1C(NC(C)=O)CC2 (configuration not stated) |  |  | inactive |
| CCOC(=O)C1(C)C2=CC=C(O2)C(C)(C)C2=CC=C(O2)C(C)(C)C2=CC=C(O2)C(C)(C)C2=CC=C1O2 |  |  | inactive |
| Oc1cc2c(cc1O)C1c3ccc(O)c(O)c3OCC1(O)C2 (configuration not stated) | < 3.70 | 5.02 |  |
| N.N.N.N.N.[Cl-].[Co+3].c1ccc(-c2nn[n-]n2)cc1 | < 3.16 | < 3.16 |  |
| Clc1cccc(-c2nc3cccc4c3n2Cc2ncccc2-4)c1 | < 3.70 | < 3.70 |  |
| CCOC(OC1=CCCC1)C(C)[Se]c1ccccc1 (configuration not stated) | < 4.65 | < 4.65 |  |
| O=[N+]([O-])C(C(Cl)=C(Cl)Cl)=C(N1CCCCC1)N1CCCCC1 | < 3.70 | 3.73 |  |
| COC(=O)C12C(=CCP1(C)=O)C(c1ccccc1)=NN2c1ccccc1 (configuration not stated) | < 4.56 | < 4.56 |  |
| Cn1c2ccccc2c2ccc3c(c21)C(=O)C=CC3=O | < 4.00 | 5.87 |  |
| COc1ccc2c(=O)c(O)c(-c3ccccc3)oc2c1 | < 4.18 | 4.91 |  |
| O=C(O)C1C2C=CC(C(/C=C/c3ccccc3)N2)C1C(=O)O (configuration not stated) | < 3.70 | < 3.70 |  |
| O=c1c2ccccc2[nH]c2c(Cl)cc(Cl)c(N3CCCCC3)c12 | < 3.70 | 4.89 |  |
| COc1ccc2cc3n(c2c1)CCc1cc(OC)c(OC)cc1-3 |  |  | inactive |
| O=C(O)CCC1CCc2cccc(O)c2C1=O (configuration not stated) |  |  | inactive |
| CC1CC2C3CC(F)C4=CC(=O)C=CC4(C)C3(F)C(O)CC2(C)C1(O)C(=O)COC(=O)C(C)(C)C (configuration not stated) |  |  | inactive |
| CCC(C)[C@H](NC(=O)[C@H](Cc1ccccc1)NC(=O)N(CC)c1ccccc1)C(=O)N[C@@H](CC(C)C)C(=O)OC (some centres not stated) |  |  | inactive |
| Cc1noc(NS(=O)(=O)c2ccc(N)cc2)c1C | < 3.70 | < 3.70 |  |
| Cc1ccc2c(c1)CC1(C2=O)[C@H](c2ccccc2)C2C(=O)c3ccc(C)cc3C2[C@H]1c1ccccc1 (some centres not stated) | < 3.70 |  |  |
| N#CC(c1nc2ccccc2nc1Cl)S(=O)(=O)c1ccccc1 (configuration not stated) | < 3.98 | 5.17 |  |
| Cc1cc(C(c2cc(C)c(O)c(C(=O)O)c2)c2cc(C)c(O)c(C(=O)O)c2)cc(C(=O)O)c1O | < 3.57 | < 3.57 |  |
| COc1cc2c(cc1OC)C(Cc1cc(OCc3ccccc3)c(OC)cc1N)N(C)CC2 (configuration not stated) |  |  | inactive |

| SMILES | pEC50 | pIC50 | outcome |
| --- | --- | --- | --- |
| Cc1c(C)c2c(c(N)c1C#N)C(=O)N(N)C2=O | < 3.70 | 3.88 |  |
| O=C1Cc2c(-c3ccccc3)cc(-c3cccc(Cl)c3)nc2-c2ccccc2N1 |  |  | inactive |
| COc1ccc(OC)c2c3c(ccc12)C(c1ccccc1)OC3=O (configuration not stated) |  |  | inactive |
| CCOC(=O)CC1COc2ccc3c(c21)OCO3 (configuration not stated) | < 3.28 | 3.47 |  |
| COC(=O)C(C#CCCCCC#CC(NC(=O)OCc1ccccc1)(C(=O)OC)C(F)(F)F)(NC(=O)OCc1ccccc1)C(F)(F)F (configuration not stated) | < 3.70 | 3.86 |  |
| COc1cc(-c2[o+]c3cc(O)cc(OC4OC(CO)C(O)C(O)C4O)c3cc2OC2OC(CO)C(O)C(O)C2O)cc(OC)c1O (configuration not stated) | < 4.17 | 4.39 |  |
| Cc1cc2c(c(=O)n1C)COC2=O |  |  | inactive |
| CCCCCCCc1cc(OC(=O)c2c(C)cc(OC)cc2O)cc(O)c1C(=O)O | < 3.79 | 4.08 |  |
| O=C(O)CN(c1ccccc1)S(=O)(=O)c1ccc(Cl)cc1 |  |  | inactive |
| CS(=O)(=O)OCC1CCCCCCCCCCC12SCCCS2 (configuration not stated) | < 3.70 | < 3.70 |  |
| CCOC(=O)c1ccc(NC(=O)Nc2ccc(Cl)cn2)cc1 | < 3.70 | < 3.70 |  |
| CC1=CC(C)S(=O)(=O)C1 (configuration not stated) | < 3.70 | < 3.70 |  |
| CCCCCCc1ccc(C(=O)NO)cc1 | < 3.70 | 4.04 |  |
| CC(C)(C)c1cc(C(P(=O)(O)O)P(=O)(O)O)cc(C(C)(C)C)c1O | < 3.28 | 3.48 |  |
| Nc1nc(N)c(-c2ccc(Cl)cc2)c(CCC(=O)Nc2cccc(C(F)(F)F)c2)n1 | < 4.92 | < 4.92 |  |
| N#Cc1cc2c(n(NS(=O)(=O)c3ccccc3)c1=O)CCC2 | < 3.70 | < 3.70 |  |
| C(=NCCCN1CCN(CCCN=Cc2cccc3ccccc23)CC1)c1cccc2ccccc12 | < 3.70 | 4.33 |  |
| Clc1ccc(C2=Nc3ccccc3SC(c3cccs3)C2)cc1 (configuration not stated) | < 5.12 | < 5.12 |  |
| CCOC(=O)c1ccc(-c2cccs2)n1C | < 3.70 | 4.01 |  |
| Nc1ccc([C@H]2C(=O)N[C@H]3CCC[C@H]32)cc1 | < 3.38 | < 3.38 |  |
| COC1/C=C\OC2(C)Oc3c(C)c(O)c4c(O)c(c(/C=N\N5CCCC5)c(O)c4c3C2=O)NC(=O)/C(C)=C\C=C/C(C)C(O)C(C)C(O)C(C)C(OC(C)=O)C1C (configuration not stated) |  |  | inactive |
| CN1C(=O)CC2(C)c3cc(O)ccc3N(C)C12 (configuration not stated) |  |  | inactive |

| SMILES | pEC50 | pIC50 | outcome |
| --- | --- | --- | --- |
| CN1C(=O)C(C)(O)Sc2ccccc21 (configuration not stated) | < 2.92 | 3.30 |  |
| Cc1cc(S(=O)(=O)NC2=NCC(C)(C)CN2)c(S)cc1Cl | < 3.70 | 4.06 |  |
| Cc1[nH]c(=O)n2c(C)nnc2c1C(=O)O |  |  | inactive |
| O=C1c2ccccc2Sc2ccccc2N1CCCCN1CCN(c2ccc(F)cc2)CC1 | < 3.70 | < 3.70 |  |
| O=C1C(O)=C(c2ccccc2)C(=O)C(O)=C1c1ccccc1 | < 4.07 | 4.36 |  |
| O=C(Nc1ccc(-c2ccccc2)oc1=O)c1ccccc1 | < 4.00 | < 4.00 |  |
| CC(=NNC(=S)Nc1cccc(C)c1)c1cccc(C(C)=NNC(=S)Nc2cccc(C)c2)n1 | < 3.70 | 4.56 |  |
| O=C(/C=C/c1ccccc1)Oc1ccc(C(=O)/C=C/c2ccc(Cl)cc2)cc1 | < 4.00 | 4.35 |  |
| CC[C@@]1(O)C(=O)OCc2c1cc1n(c2=O)Cc2cc3cc4c(cc3nc2-1)OCO4 | < 8.70 | 9.48 |  |
| CCn1c(=O)c(N=O)c(N)n(C2CC2)c1=O | < 3.70 | < 3.70 |  |
| Cc1ccccc1Nc1ccc([N+](=O)[O-])c2nonc12 | < 4.08 | 4.48 |  |
| O=C1N[Se](=O)c2ccccc21 (configuration not stated) | 5.57 | 4.64 |  |
| CCN(CC)CCCC(C)Nc1c2ccc(Cl)cc2nc2c(Cl)cc(Cl)cc12 (configuration not stated) | < 3.70 | 5.10 |  |
| Cc1ccc(C(=O)C2=CN=C3C(=O)N(c4ccccc4)N(C)C3(C)C2=N)cc1 (configuration not stated) | < 3.70 | < 3.70 |  |
| N#Cc1ccc(-c2ccc(Cl)cc2)n(C2OC(CO)C(O)C(O)C2O)c1=S (configuration not stated) | < 3.70 | < 3.70 |  |
| C1=C\C=C\C2OC2/C=C/1 (configuration not stated) | < 3.65 | 3.95 |  |
| CCO/N=C(/N)c1ncn(Cc2ccccc2)c1NCC(OCC)OCC | < 3.18 | 3.47 |  |
| CC/C(=C(\C#N)c1ccc(F)cc1)c1ccc(OCCN(CC)CC)cc1 | < 3.70 | 5.60 |  |
| Nn1c(=O)n2n(c1=O)C1CCC2C1 | < 3.70 | < 3.70 |  |
| CCOC(=O)C(=Cc1ccco1)C(=O)OCC | < 3.82 | 4.07 |  |
| C/C(C=C(C#N)C#N)=C\c1ccccc1 | < 4.01 | 4.40 |  |
| COc1cc2c(cc1OC)C13CCN4CC5=CCOC(CC(=O)O)C(C5CC41)C3N2 (configuration not stated) | 4.59 | 3.82 |  |

| SMILES | pEC50 | pIC50 | outcome |
| --- | --- | --- | --- |
| COc1cc(OC)c2c(=O)c3cccc(O)c3oc2c1 | < 3.70 | < 3.70 |  |
| CCOc1ccc(NC(=O)/C(=N\N)C(C(=O)OC)c2nc3ccc(Cl)cc3[nH]c2=O)cc1 (configuration not stated) | < 4.41 | < 4.41 |  |
| Cn1ccc(C(=O)NCCN(CCNC(=O)c2ccn(C)c(=O)c2O)CCNC(=O)c2cccc(=O)n2O)c(O)c1=O | < 3.70 | < 3.70 |  |
| COC1/C=C/OC2(C)Oc3c(C)c(O)c4c(O)c(cc(OCC(=O)N5CCOCC5C)c4c3C2=O)NC(=O)/C(C)=C/C=C/C(C)C(O)C(C)C(O)C(C)C(OC(C)=O)C1C (configuration not stated) | < 3.70 | 4.44 |  |
| COc1ccc(NC(=O)c2c(NC(C)=O)c(C#N)c3n2CCC3)cc1 | < 3.70 | < 3.70 |  |
| O=c1c2[nH]cnc2n(-c2ccccc2)c(=S)n1-c1ccccc1 | < 3.70 | < 3.70 |  |
| C[C@@H]1CC(=O)[C@@]2(C)[C@](O)(CCC3O[C@]32C)[C@@]12CC(c1ccoc1)OC2=O (some centres not stated) | < 3.70 | 4.51 |  |
| CN(C)c1nn2c(-c3ccccc3)nnc2s1 |  |  | inactive |
| COC1CCCCC1C(N)C(=O)O (configuration not stated) (tested in a mixture with another compound) | < 3.70 | < 3.70 |  |
| CC1OC(OCC2OC(Oc3c(-c4ccc(O)cc4)oc4cc(O)cc(O)c4c3=O)C(OC3OCC(O)(CO)C3O)C(O)C2O)C(O)C(O)C1O (configuration not stated) | < 3.46 | < 3.46 |  |
| COC(=O)c1c/c(=N\NC(=O)CC(=O)Nc2ccccc2OC)c2ccccc2o1 | < 3.64 | < 3.64 |  |
| Cc1cc(Br)ccc1N=Nc1c(C)nn(-c2ccccc2)c1-c1ccccc1 |  |  | inactive |
| CC(C)(C)C(O)CC(O)(C(F)(F)F)C(F)(F)F (configuration not stated) | < 3.70 | < 3.70 |  |
| O=c1[nH]c(=O)n(C2CC(F)C(CO)O2)cc1COCC(F)(F)F (configuration not stated) | 6.77 | 3.69 |  |
| Cc1ccc(S(=O)(=O)Oc2coc(CO)cc2=O)cc1 | < 3.70 | 4.91 |  |
| COc1c(Cl)cc(Cc2cc(Cl)c(OC)c([N+](=O)[O-])c2)cc1[N+](=O)[O-] | < 3.70 | < 3.70 |  |
| N#CC1Cc2cc3c(cc21)OCO3 (configuration not stated) | < 3.70 | < 3.70 |  |
| COC(=O)C1=C(C(=O)OC)SC(=C(Br)C(=C2SC(C(=O)OC)=C(C(=O)OC)S2)C(=C2SC(C(=O)OC)=C(C(=O)OC)S2)C(Br)=C2SC(C(=O)OC)=C(C(=O)OC)S2)S1 | < 5.60 | < 5.60 |  |
| CCOC(=O)N/N=C(\Cc1ccccc1)OCC | < 3.70 | < 3.70 |  |
| CC1N(C)C(=O)OC12CCN(CCCC(=O)c1ccc(F)cc1)CC2 (configuration not stated) | < 3.70 | < 3.70 |  |
| CCOC(=O)Cn1c(=O)c2nc(SC)sc2n(-c2ccccc2)c1=O | < 3.70 | < 3.70 |  |

Source: PubChem BioAssay AID179 (DTP/NCI, 2004)
